Source: ChEMBL document CHEMBL2311252, “Cytosporone S with antimicrobial activity, isolated from the fungus Trichoderma sp. FKI-6626” (2013)
≈ marks a conversion by molar mass, not a printed value.

Tests used:
Bacillus subtilis [1] = assay: Antibacterial activity against Bacillus subtilis KB211 ATCC 6633 by agar dilution method; format: functional
Escherichia coli [2] = assay: Antibacterial activity against Escherichia coli KB176 NIHJ JC-2 by agar dilution method; format: functional
Salmonella typhimurium = assay: Antibacterial activity against Salmonella typhimurium KB20 by agar dilution method; format: functional, Salmonella enterica subsp. enterica serovar Typhimurium; details: Salmonella enterica
Escherichia coli [3] = assay: Antibacterial activity against Escherichia coli KB336 JCM5491 by agar dilution method; format: functional
Saccharomyces cerevisiae = assay: Antifungal activity against Saccharomyces cerevisiae KF26 by agar dilution method; format: functional
Staphylococcus aureus [4] = assay: Antibacterial activity against Staphylococcus aureus KB210 ATCC 6538p by agar dilution method; format: functional
Pseudomonas aeruginosa [5] = assay: Antibacterial activity against Pseudomonas aeruginosa KB115 NBRC3080 by agar dilution method; format: functional
Klebsiella pneumoniae [6] = assay: Antibacterial activity against Klebsiella pneumoniae KB214 ATCC 10031 by agar dilution method; format: functional
Proteus vulgaris = assay: Antibacterial activity against Proteus vulgaris KB127 IF03167 by agar dilution method; format: functional
Kocuria rhizophila [7] = assay: Antibacterial activity against Kocuria rhizophila KB354 NBRC12708 by agar dilution method; format: functional
Bacillus subtilis [8] = assay: Antibacterial activity against Bacillus subtilis KB340 JCM1465 by agar dilution method; format: functional
Kocuria rhizophila [9] = assay: Antibacterial activity against Kocuria rhizophila KB212 ATCC 9341 by agar dilution method; format: functional
Mucor racemosus = assay: Antifungal activity against Mucor racemosus KF223 NBRC4581 by agar dilution method; format: functional
Candida albicans = assay: Antifungal activity against Candida albicans KF1 by agar dilution method; format: functional
[10] = tested on: Mycolicibacterium smegmatis; assay: Antibacterial activity against Mycobacterium smegmatis KB42 ATCC 607 by agar dilution method; format: functional
Micrococcus luteus = assay: Antibacterial activity against Micrococcus luteus KB453 NBRC13867 by agar dilution method; format: functional
Aspergillus oryzae = assay: Antifungal activity against Aspergillus oryzae KF439 by agar dilution method; format: functional
Serratia marcescens = assay: Antibacterial activity against Serratia marcescens KB215 IAM1021 by agar dilution method; format: functional
Proteus mirabilis = assay: Antibacterial activity against Proteus mirabilis KB125 NBRC3849 by agar dilution method; format: functional
Comamonas terrigena = assay: Antibacterial activity against Comamonas terrigena KB358 NBRC13299 by agar dilution method; format: functional
Bacillus cereus = assay: Antibacterial activity against Bacillus cereus KB143 NBRC3001 by agar dilution method; format: functional
Klebsiella pneumoniae [11] = assay: Antibacterial activity against Klebsiella pneumoniae KB357 NBRC357 by agar dilution method; format: functional
Escherichia coli [12] = assay: Antibacterial activity against Escherichia coli KB213 NIHJ by agar dilution method; format: functional
[13] = tested on: Staphylococcus epidermidis; assay: Antibacterial activity against Staphylococcus epidermidis KB352 NBRC12993 by agar dilution method; format: functional
Staphylococcus aureus [14] = assay: Antibacterial activity against Staphylococcus aureus KB349 MRSA K24 by agar dilution method; format: functional
Staphylococcus aureus [15] = assay: Antibacterial activity against Staphylococcus aureus KB335 JCM2151 by agar dilution method; format: functional
Aspergillus niger = assay: Antifungal activity against Aspergillus niger KF104 ATCC 9643 by agar dilution method; format: functional
Bacillus subtilis [16] = assay: Antibacterial activity against Bacillus subtilis KB355 NBRC3134 by agar dilution method; format: functional
Pseudomonas aeruginosa [17] = assay: Antibacterial activity against Pseudomonas aeruginosa KB359 NBRC12582 by agar dilution method; format: functional

- MIC (Bacillus subtilis [1]): 100 µg/mL (≈ 357 µM)
- MIC (Escherichia coli [2]): > 100 µg/mL
- MIC (Salmonella typhimurium): > 100 µg/mL
- MIC (Escherichia coli [3]): > 100 µg/mL
- MIC (Saccharomyces cerevisiae): 12.5 µg/mL (≈ 44.6 µM)
- MIC (Staphylococcus aureus [4]): 50 µg/mL (≈ 178 µM)
- MIC (Pseudomonas aeruginosa [5]): 100 µg/mL (≈ 357 µM)
- MIC (Klebsiella pneumoniae [6]): > 100 µg/mL
- MIC (Proteus vulgaris): 50 µg/mL (≈ 178 µM)
- MIC (Kocuria rhizophila [7]): 50 µg/mL (≈ 178 µM)
- MIC (Bacillus subtilis [8]): 50 µg/mL (≈ 178 µM)
- MIC (Kocuria rhizophila [9]): 50 µg/mL (≈ 178 µM)
- MIC (Mucor racemosus): 100 µg/mL (≈ 357 µM)
- MIC (Candida albicans): 25 µg/mL (≈ 89.2 µM)
- MIC [10]: 50 µg/mL (≈ 178 µM)
- MIC (Micrococcus luteus): 50 µg/mL (≈ 178 µM)
- MIC (Aspergillus oryzae): 50 µg/mL (≈ 178 µM)
- MIC (Serratia marcescens): > 100 µg/mL
- MIC (Proteus mirabilis): 100 µg/mL (≈ 357 µM)
- MIC (Comamonas terrigena): 50 µg/mL (≈ 178 µM)
- MIC (Bacillus cereus): 50 µg/mL (≈ 178 µM)
- MIC (Klebsiella pneumoniae [11]): > 100 µg/mL
- MIC (Escherichia coli [12]): 100 µg/mL (≈ 357 µM)
- MIC [13]: 50 µg/mL (≈ 178 µM)
- MIC (Staphylococcus aureus [14]): 50 µg/mL (≈ 178 µM)
- MIC (Staphylococcus aureus [15]): 50 µg/mL (≈ 178 µM)
- MIC (Aspergillus niger): 50 µg/mL (≈ 178 µM)
- MIC (Bacillus subtilis [16]): 50 µg/mL (≈ 178 µM)
- MIC (Pseudomonas aeruginosa [17]): 100 µg/mL (≈ 357 µM)
Structure (SMILES): CCCCCC1OC(=O)Cc2cc(OC)c(O)c(O)c21 (racemic)
